Test results published in patent US6737383B1, “Herbicidal oxadiazolidines” (priority 1999, dated 2004).

Assays:
duck salad = assay: Test B flood test duck salad; assay type: in vivo, Heteranthera limosa
In short: (§1)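 Each value is a visual injury score relative to controls, with 10 meaning complete control and 0 no effect. Evaluation took place twelve to sixteen days after the 2-leaf-stage plants were treated and kept in the greenhouse.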

soybean = assay: Test B pre/postemergence soybean; assay type: in vivo, Glycine max
In short: (§2)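 Herbicidal effect was estimated by eye on a ten-point control scale after plants spent twelve to sixteen days in a greenhouse following soil or foliar treatment. Foliar sprays targeted plants at one to four leaves; all doses were formulated in a non-phytotoxic solvent with surfactant.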

rice = assay: Test B flood test rice; assay type: in vivo, Oryza sativa
In short: as §1

cocklebur = assay: Test B pre/postemergence cocklebur; assay type: in vivo, Xanthium strumarium
In short: as §2

rape = assay: Test B pre/postemergence rape; assay type: in vivo, Brassica napus
In short: as §2

crabgrass = assay: Test B pre/postemergence crabgrass; assay type: in vivo, Digitaria sanguinalis
In short: as §2

smallflower flatsedge = assay: Test B flood test smallflower flatsedge; assay type: in vivo, Cyperus difformis
In short: as §1

corn = assay: Test B pre/postemergence corn; assay type: in vivo, Zea mays
In short: as §2

bamyardgrass = assay: Test B flood test barnyardgrass; assay type: in vivo, Echinochloa crus-galli
In short: as §1

giant foxtail = assay: Test B pre/postemergence giant foxtail; assay type: in vivo, Setaria faberii
In short: as §2

sugar beet = assay: Test B pre/postemergence sugar beet; assay type: in vivo, Beta vulgaris
In short: as §2

purple nutsedge = assay: Test B pre/postemergence purple nutsedge; assay type: in vivo, Cyperus rotundus; conditions: Postemergence
In short: as §2

surinam grass = assay: Test B pre/postemergence surinam grass; assay type: in vivo, Brachiaria decumbens
In short: as §2

blackgrass = assay: Test B pre/postemergence blackgrass; assay type: in vivo, Alopecurus myosuroides
In short: as §2

wheat = assay: Test B pre/postemergence wheat; assay type: in vivo, Triticum aestivum
In short: as §2

pigweed = assay: Test B pre/postemergence pigweed; assay type: in vivo, Amaranthus retroflexus
In short: as §2

[1] = Postemergence, Rate 1000 g/ha, scale 0 to 10 (0 no effect, 10 complete control)
[2] = Rate 125 g/ha, Postemergence section (flood test species), scale 0 to 10, 0 no effect, 10 complete control
[3] = Rate 500 g/ha, Postemergence section of Table B, 0 to 10 scale (0 no effect, 10 complete control)
[4] = flood test, listed under Postemergence, Rate 250 g/ha, scale 0 to 10, 0 no effect, 10 complete control
[5] = Postemergence, Rate 250 g/ha, scale 0 to 10, 0 no effect, 10 complete control
[6] = Preemergence, Rate 125 g/ha, scale 0 to 10 (0 no effect, 10 complete control)
[7] = Preemergence, Rate 250 g/ha, scale of 0 to 10 where 0 is no effect and 10 is complete control
[8] = Preemergence, Rate 500 g/ha, scale 0 (no effect) to 10 (complete control)
[9] = Rate 125 g/ha, Postemergence, scale 0 to 10, 0 no effect, 10 complete control
[10] = Rate 1000 g/ha, Preemergence, scale 0 to 10 (0 no effect, 10 complete control)
[11] = Rate 500 g/ha, Postemergence, 0 to 10 scale (0 no effect, 10 complete control)

CCN(CC)C(=O)n1oc(=O)n(-c2c(C)cccc2C)c1=O [Compound 2]
1: Soybean plant response rating (soybean; [5])
3: Plant response rating, Soybean (soybean; [10]) | Corn plant response rating (corn; [5])
7: Corn plant response rating (corn; [8]) | Giant foxtail plant response rating (giant foxtail; [5]) | Plant response rating, Giant foxtail (giant foxtail; [7]) | Giant foxtail plant response rating (giant foxtail; [8]) | Giant foxtail plant response rating (giant foxtail; [11]) | Plant response rating, Blackgrass (blackgrass; [10])
0: Ducksalad plant response rating (duck salad; [1]) | Ducksalad plant response rating (duck salad; [2]) | Ducksalad plant response rating (duck salad; [3]) | Ducksalad plant response rating (duck salad; [4]) | Plant response rating, Soybean (soybean; [6]) | Plant response rating, Soybean (soybean; [7]) | Soybean plant response rating (soybean; [8]) | Soybean plant response rating (soybean; [9]) | Rice plant response rating (rice; [1]) | Rice plant response rating (rice; [2]) | Rice plant response rating (rice; [3]) | Rice plant response rating (rice; [4]) | Cocklebur plant response rating (cocklebur; [5]) | Cocklebur plant response rating (cocklebur; [1]) | Plant response rating, Cocklebur (cocklebur; [6]) | Plant response rating, Cocklebur (cocklebur; [7]) | Cocklebur plant response rating (cocklebur; [8]) | Cocklebur plant response rating (cocklebur; [9]) | Cocklebur plant response rating (cocklebur; [11]) | Rape plant response rating (rape; [5]) | Rape plant response rating (rape; [1]) | Plant response rating, Rape (rape; [6]) | Plant response rating, Rape (rape; [7]) | Rape plant response rating (rape; [8]) | Rape plant response rating (rape; [9]) | Rape plant response rating (rape; [11]) | Plant response rating, Rape (rape; [10]) | Crabgrass plant response rating (crabgrass; [5]) | Plant response rating, Crabgrass (crabgrass; [6]) | Plant response rating, Crabgrass (crabgrass; [7]) | Crabgrass plant response rating (crabgrass; [8]) | Crabgrass plant response rating (crabgrass; [9]) | Crabgrass plant response rating (crabgrass; [11]) | S. Flatsedge plant response rating (smallflower flatsedge; [1]) | S. Flatsedge plant response rating (smallflower flatsedge; [2]) | S. Flatsedge plant response rating (smallflower flatsedge; [4]) | Corn plant response rating (corn; [9]) | Barnyardgrass plant response rating (bamyardgrass; [1]) | Barnyardgrass plant response rating (bamyardgrass; [2]) | Barnyardgrass plant response rating (bamyardgrass; [3]) | Barnyardgrass plant response rating (bamyardgrass; [4]) | Giant foxtail plant response rating (giant foxtail; [9]) | Sugarbeets plant response rating (sugar beet; [5]) | Sugarbeets plant response rating (sugar beet; [1]) | Plant response rating, Sugarbeets (sugar beet; [6]) | Plant response rating, Sugarbeets (sugar beet; [7]) | Sugarbeets plant response rating (sugar beet; [8]) | Sugarbeets plant response rating (sugar beet; [9]) | Plant response rating, Sugarbeets (sugar beet; [10]) | Nutsedge plant response rating (purple nutsedge; Rate 250 g/ha, scale 0 to 10, 0 no effect, 10 complete control) | Nutsedge plant response rating (purple nutsedge; Rate 1000 g/ha, scale 0 to 10 (0 no effect, 10 complete control)) | Nutsedge plant response rating (purple nutsedge; Rate 125 g/ha, scale 0 to 10, 0 no effect, 10 complete control) | Nutsedge plant response rating (purple nutsedge; Rate 500 g/ha, 0 to 10 scale (0 no effect, 10 complete control)) | B. signalgrass plant response rating (surinam grass; [5]) | Plant response rating, B. signalgrass (surinam grass; [6]) | Plant response rating, B. signalgrass (surinam grass; [7]) | B. signalgrass plant response rating (surinam grass; [8]) | B. signalgrass plant response rating (surinam grass; [9]) | B. signalgrass plant response rating (surinam grass; [11]) | Plant response rating, Blackgrass (blackgrass; [6]) | Plant response rating, Blackgrass (blackgrass; [7]) | Blackgrass plant response rating (blackgrass; [8]) | Blackgrass plant response rating (blackgrass; [9]) | Wheat plant response rating (wheat; [5]) | Wheat plant response rating (wheat; [1]) | Plant response rating, Wheat (wheat; [6]) | Plant response rating, Wheat (wheat; [7]) | Wheat plant response rating (wheat; [8]) | Wheat plant response rating (wheat; [9]) | Plant response rating, Wheat (wheat; [10]) | Redroot pigweed plant response rating (pigweed; [5]) | Redroot pigweed plant response rating (pigweed; [1]) | Plant response rating, Redroot pigweed (pigweed; [6]) | Plant response rating, Redroot pigweed (pigweed; [7]) | Redroot pigweed plant response rating (pigweed; [8]) | Redroot pigweed plant response rating (pigweed; [9]) | Redroot pigweed plant response rating (pigweed; [11]) | Plant response rating, Redroot pigweed (pigweed; [10])
9: Blackgrass plant response rating (blackgrass; [1])
4: Soybean plant response rating (soybean; [1]) | Crabgrass plant response rating (crabgrass; [1]) | Plant response rating, Corn (corn; [6]) | Blackgrass plant response rating (blackgrass; [5])
6: Plant response rating, Crabgrass (crabgrass; [10]) | Plant response rating, Corn (corn; [7]) | Corn plant response rating (corn; [11]) | Plant response rating, Giant foxtail (giant foxtail; [6]) | Plant response rating, B. signalgrass (surinam grass; [10])
8: Corn plant response rating (corn; [1]) | Plant response rating, Corn (corn; [10]) | Giant foxtail plant response rating (giant foxtail; [1]) | Blackgrass plant response rating (blackgrass; [11])
10: Plant response rating, Giant foxtail (giant foxtail; [10])
2: B. signalgrass plant response rating (surinam grass; [1])
